Here are results for 24 compounds from US20250197359A1, “CANNABINOID RECEPTOR MODULATING COMPOUNDS” (The U.S.A., as Represented by the Secretary, Department of …, priority 2022, published 2025).

pKi: −log10 of the molar value. Read-outs that look alike come from different tables or passages of the source.

The test deals with CB1 (UniProt P21554). Nature of the test: CB1 radioligand binding assay. More on the design: species or system human. As to conditions: for pKi: read-out: Ki (CB1). On the procedure: The target compounds were evaluated in vitro at the human CB1 receptor, stably expressed into Chinese hamster ovary (CHO) cells by utilizing radioligand binding studies.
The binding constant for the synthesized compounds were determined by using radioligand binding assay in mouse brain membranes as well as the target compounds were evaluated in vitro at the human CB1 receptor, stably expressed into Chinese hamster ovary (CHO) cells as well as mouse brain membrane CB1. […]

What is called pKi is −log10 of the Ki, conventionally taken in molar units. On to `O=S(=O)(/N=C(\NC12CC3CC(CC(C3)C1)C2)N1CCC(c2ccccc2)C(c2ccc(Cl)cc2)=N1)c1ccc(C(F)(F)F)cc1` (stereo not drawn) [Compound 20, (E)-N-((3s,5s,7s)-adamantan-1-yl)-3-(4-chlorophenyl)-4-phenyl-N′-((4-(trifluoromethyl)phenyl)sulfonyl)-5,6-dihydropyridazine-1 (4H)-carboximidamide], for which the pKi was 7.09.
For orientation: Ki means a dissociation constant, usually derived from enzyme kinetics or from competition with a known ligand. Consider `C[Se]/C(N)=N\C(=N\S(=O)(=O)c1ccc(Cl)cc1)N1CCC(c2ccccc2)C(c2ccc(Cl)cc2)=N1` (stereo not drawn) [Compound 12a, methyl (Z)—N′—((Z)-(3-(4-chlorophenyl)-4-phenyl-5,6-dihydropyridazin-1 (4H)-yl)(((4-chlorophenyl)sulfonyl)imino)methyl)carbamimidoselenoate], for which, for the setting “read-out: Ki (CB1) in nM”, the Ki was determined as 45 nM.
Regarding `CCN(CC)/C(N)=N/C(=N/S(=O)(=O)c1ccc(C(F)(F)F)cc1)N1CCC(c2ccccc2)C(c2ccc(Cl)cc2)=N1` (stereo not drawn) [Compound 18, (Z)—N—((E)-amino (diethylamino)methylene)-3-(4-chlorophenyl)-4-phenyl-N′-((4-(trifluoromethyl)phenyl)sulfonyl)-5,6-dihydropyridazine-1 (4H)-carboximidamide], the pKi is 6.27.
The same measure, in the same setting: to `CS/C(N)=N\C(=N\S(=O)(=O)c1cccc(C(F)(F)F)c1)N1CCC(c2ccccc2)C(c2ccc(Cl)cc2)=N1` (stereo not drawn) [Compound 11c, methyl (Z)—N′—((Z)-(3-(4-chlorophenyl)-4-phenyl-5,6-dihydropyridazin-1 (4H)-yl)(((3-(trifluoromethyl)phenyl)sulfonyl)imino)methyl)carbamimidothioate] belongs 6.63; to `CCC(N/C(=N/S(=O)(=O)c1ccc(C(F)(F)F)cc1)N1CCC(c2ccccc2)C(c2ccc(Cl)cc2)=N1)C(N)=O` (single isomer, unassigned) [Compound 32a, (Z)-2-(3-(4-chlorophenyl)-4-phenyl-N′-((4-(trifluoromethyl)phenyl)sulfonyl)-1,4,5,6-tetrahydropyridazine-1-carboximidamido) butanamide], 6.11; to `O=C(O)CCCN/C(=N/S(=O)(=O)c1ccc(C(F)(F)F)cc1)N1CCC(c2ccccc2)C(c2ccc(Cl)cc2)=N1` (stereo not drawn) [Compound 21, (Z)-4-(3-(4-chlorophenyl)-4-phenyl-N′-((4-(trifluoromethyl)phenyl)sulfonyl)-1,4,5,6-tetrahydropyridazine-1-carboximidamido) butanoic acid], 6.24.
The same measure, in the same setting: then `CS/C(N)=N\C(=N\S(=O)(=O)c1ccccc1)N1CCC(c2ccccc2)C(c2ccc(Cl)cc2)=N1` (stereo not drawn) [Compound 11g, methyl (Z)—N′—((Z)-(3-(4-chlorophenyl)-4-phenyl-5,6-dihydropyridazin-1 (4H)-yl)((phenylsulfonyl)imino)methyl)carbamimidothioate], with 5.80; and `C[Se]/C(N)=N\C(=N\S(=O)(=O)c1ccccc1)N1CCC(c2ccccc2)C(c2ccc(Cl)cc2)=N1` (stereo not drawn) [Compound 12g, methyl (Z)—N′—((Z)-(3-(4-chlorophenyl)-4-phenyl-5,6-dihydropyridazin-1 (4H)-yl)((phenylsulfonyl)imino)methyl)carbamimidoselenoate], with 5.55.
On to `O=S(=O)(/N=C(\N=C1/CCCN1)N1CCC(c2ccccc2)C(c2ccc(Cl)cc2)=N1)c1ccc(C(F)(F)F)cc1` (stereo not drawn) [Compound 17, (E)-3-(4-chlorophenyl)-4-phenyl-N—((E)-pyrrolidin-2-ylidene)-N′-((4-(trifluoromethyl)phenyl)sulfonyl)-5,6-dihydropyridazine-1 (4H)-carboximidamide], for which the pKi was 6.93.
Still for that read-out and setting: to `CS/C(N)=N\C(=N\S(=O)(=O)c1ccc(Cl)cc1)N1CCC(c2ccccc2)C(c2ccc(Cl)cc2)=N1` (stereo not drawn) [Compound 11a, methyl (Z)—N′—((Z)-(3-(4-chlorophenyl)-4-phenyl-5,6-dihydropyridazin-1 (4H)-yl)(((4-chlorophenyl)sulfonyl)imino)methyl)carbamimidothioate] belongs 6.68.
Still for that read-out and setting: then `CS/C(N)=N\C(=N\S(=O)(=O)c1ccc(C#N)cc1)N1CCC(c2ccccc2)C(c2ccc(Cl)cc2)=N1` (stereo not drawn) [Compound 11e, methyl (Z)—N′—((Z)-(3-(4-chlorophenyl)-4-phenyl-5,6-dihydropyridazin-1 (4H)-yl)(((4-cyanophenyl)sulfonyl)imino)methyl)carbamimidothioate], with 6.86.
Still for that read-out and setting: then `C[Se]/C(N)=N/C(=N/S(=O)(=O)c1ccc(C(F)(F)F)cc1)N1CCC(c2ccccc2)C(c2ccc(F)cc2)=N1` (stereo not drawn) [Compound 12i, methyl (E)-N′—((Z)-(3-(4-fluorophenyl)-4-phenyl-5,6-dihydropyridazin-1 (4H)-yl)(((4-(trifluoromethyl)phenyl)sulfonyl)imino)methyl)carbamimidoselenoate], with 6.96; and `CC(=O)N/C(N)=N\C(=N\S(=O)(=O)c1ccc(C#N)cc1)N1CCC(c2ccccc2)C(c2ccc(Cl)cc2)=N1` (stereo not drawn) [Compound 13a, N—((Z)—N′—((Z)-(3-(4-chlorophenyl)-4-phenyl-5,6-dihydropyridazin-1 (4H)-yl)(((4-cyanophenyl)sulfonyl)imino)methyl)carbamimidoyl) acetamide], with 7.61; and `C[Se]/C(N)=N\C(=N\S(=O)(=O)c1ccc2ccccc2c1)N1CCC(c2ccccc2)C(c2ccc(Cl)cc2)=N1` (stereo not drawn) [Compound 12f, methyl (Z)—N′—((Z)-(3-(4-chlorophenyl)-4-phenyl-5,6-dihydropyridazin-1 (4H)-yl)((naphthalen-2-ylsulfonyl)imino)methyl)carbamimidoselenoate], with 6.50.
Regarding `CC(=O)N/C(N)=N\C(=N\S(=O)(=O)c1ccc(C(F)(F)F)cc1)N1CCC(c2ccccc2)C(c2ccc(Cl)cc2)=N1` (stereo not drawn) [Compound 14, N—((Z)—N′—((Z)-(3-(4-chlorophenyl)-4-phenyl-5,6-dihydropyridazin-1 (4H)-yl)(((4-(trifluoromethyl)phenyl)sulfonyl)imino)methyl)carbamimidoyl) acetamide], the pKi was 8.30.
Same read-out and setting: to `COc1ccc(S(=O)(=O)/N=C(/N=C(/N)SC)N2CCC(c3ccccc3)C(c3ccc(Cl)cc3)=N2)cc1` (stereo not drawn) [Compound 11h, methyl (Z)—N′—((Z)-(3-(4-chlorophenyl)-4-phenyl-5,6-dihydropyridazin-1 (4H)-yl)(((4-methoxyphenyl)sulfonyl)imino)methyl)carbamimidothioate] belongs 5.97; to `C[Se]/C(N)=N\C(=N\S(=O)(=O)c1ccc(OC(F)(F)F)cc1)N1CCC(c2ccccc2)C(c2ccc(Cl)cc2)=N1` (stereo not drawn) [Compound 12d, methyl (Z)—N′—((Z)-(3-(4-chlorophenyl)-4-phenyl-5,6-dihydropyridazin-1 (4H)-yl)(((4-(trifluoromethoxy)phenyl)sulfonyl)imino)methyl)carbamimidoselenoate], 6.71.
The same measure, in the same setting: then `COc1ccc(S(=O)(=O)/N=C(/N=C(/N)[Se]C)N2CCC(c3ccccc3)C(c3ccc(Cl)cc3)=N2)cc1` (stereo not drawn) [Compound 12h, methyl (Z)—N′—((Z)-(3-(4-chlorophenyl)-4-phenyl-5,6-dihydropyridazin-1 (4H)-yl)(((4-methoxyphenyl)sulfonyl)imino)methyl)carbamimidoselenoate], with 5.96; and `CC(C)(C)OC(=O)N/C(N)=N\C(=N\S(=O)(=O)c1ccc(C(F)(F)F)cc1)N1CCC(c2ccccc2)C(c2ccc(Cl)cc2)=N1` (stereo not drawn) [Compound 19], with 6.42.
The same measure, in the same setting: then `CS/C(N)=N\C(=N\S(=O)(=O)c1ccc2ccccc2c1)N1CCC(c2ccccc2)C(c2ccc(Cl)cc2)=N1` (stereo not drawn) [Compound 11f, methyl (Z)—N′—((Z)-(3-(4-chlorophenyl)-4-phenyl-5,6-dihydropyridazin-1 (4H)-yl)((naphthalen-2-ylsulfonyl)imino)methyl)carbamimidothioate], with 6.23; and `C[Se]/C(N)=N\C(=N\S(=O)(=O)c1ccc(C#N)cc1)N1CCC(c2ccccc2)C(c2ccc(Cl)cc2)=N1` (stereo not drawn) [Compound 12e, methyl (Z)—N′—((Z)-(3-(4-chlorophenyl)-4-phenyl-5,6-dihydropyridazin-1 (4H)-yl)(((4-cyanophenyl)sulfonyl)imino)methyl)carbamimidoselenoate], with 6.75; and `CS/C(N)=N\C(=N\S(=O)(=O)c1ccc(OC(F)(F)F)cc1)N1CCC(c2ccccc2)C(c2ccc(Cl)cc2)=N1` (stereo not drawn) [Compound 11d, methyl (Z)—N′—((Z)-(3-(4-chlorophenyl)-4-phenyl-5,6-dihydropyridazin-1 (4H)-yl)(((4-(trifluoromethoxy)phenyl)sulfonyl)imino)methyl)carbamimidothioate], with 6.82.
With `C/C(N)=N/C(=N/S(=O)(=O)c1ccc(C(F)(F)F)cc1)N1CCC(c2ccccc2)C(c2ccc(F)cc2)=N1` (stereo not drawn) [Compound 10zc, (Z)—N—((Z)-1-aminoethylidene)-3-(4-fluorophenyl)-4-phenyl-N′-((4-(trifluoromethyl)phenyl)sulfonyl)-5,6-dihydropyridazine-1 (4H)-carboximidamide], the pKi is 6.92.
The same measure, in the same setting: then `NC(=S)NN/C(=N/S(=O)(=O)c1ccc(C(F)(F)F)cc1)N1CCC(c2ccccc2)C(c2ccc(Cl)cc2)=N1` (stereo not drawn) [Compound 22, (Z)-2-((3-(4-chlorophenyl)-4-phenyl-5,6-dihydropyridazin-1 (4H)-yl)(((4-(trifluoromethyl)phenyl)sulfonyl)imino)methyl) hydrazine-1-carbothioamide], with 6.24.
